The results in this text go back to the OligoGym collection.

This series has as its target SNHG14. To be noted: ASO, Human Neuronal Cell.

After the bases stand the sugars from the 5' end (letter, count) and the backbone: PS all phosphorothioate, else s phosphorothioate and o phosphodiester by linkage. Methylation of C is not given here. l = locked nucleic acid (LNA); d = 2'-deoxy (DNA)

“TATACCTTTCTTTAACCCT (sugars l2 d15 l2, PS)”: the target mRNA inhibition runs as follows: (0.2 µM) 13%; (1 µM) 37%.

On to “TATACCTTTCTTTAACCCTT (sugars l2 d3 l1 d12 l2, PS)”, for which the target mRNA inhibition (7.5 µM) came out at 43%.

Take “TATACCTTTCTTTAACCCTT (sugars lddddlddddddddddldll, PS)”: the target mRNA inhibition (7.5 µM) came out at 61%.

Regarding “TATACCTTTCTTTAACCCTT (sugars lddddldddddddddlddll, PS)”, for the setting “7.5 µM”, the target mRNA inhibition came out at 61%.

Turning to “TATACCTTTCTTTAACCCTT (sugars ldddlddddddddddlddll, PS)”, under “7.5 µM”, the target mRNA inhibition is 54%.

With TATCAATATCTTCTCA (sugars l2 d10 l4, PS), the target mRNA inhibition reads like this: (0.2 µM) 46%; (1 µM) 61%.

Take TATCAGTTATCCAATA (sugars l4 d10 l2, PS): the target mRNA inhibition was 42% (0.2 µM) and 51% (1 µM).

“TATCTATTTAATTTACAC (sugars l3 d12 l3, PS)”: the target mRNA inhibition was 8% (0.2 µM) and 0% (1 µM).

On to “TATCTTTCCATTTATTTCC (sugars l1 d2 l2 d12 l2, PS)”, for which, for the setting “7.5 µM”, the target mRNA inhibition amounted to 47%.

For the sequence “TATCTTTCCATTTATTTCC (sugars lddddldddddddddldll, PS)”, for the setting “7.5 µM”, the target mRNA inhibition is 52%.

“TATCTTTCCATTTATTTCCA (sugars l1 d2 l1 d14 l2, PS)”: the target mRNA inhibition (7.5 µM) turned out to be 45%.

Take “TATCTTTCCATTTATTTCCA (sugars l2 d16 l2, PS)”: the target mRNA inhibition (7.5 µM) is -12%.

For the sequence “TATCTTTCCATTTATTTCCA (sugars lddddlddddddddllddll, PS)”, the target mRNA inhibition (7.5 µM) was 50%.

In the case of “TATCTTTGACATTCCAT (sugars l2 d11 l4, PS)”, the target mRNA inhibition was 48% (0.2 µM) and 52% (1 µM).

For TATGACTCCAATAATC (sugars l3 d10 l3, PS), the target mRNA inhibition is, setting by setting: (0.2 µM) 30%; (1 µM) 44%.

With TATGACTTATTCCATA (sugars l2 d10 l4, PS), the target mRNA inhibition is 18% (0.2 µM) and 14% (1 µM).

Turning to TATTGAACCAATTCTA (sugars l3 d10 l3, PS), the target mRNA inhibition by setting is: (0.2 µM) 34%; (1 µM) 47%.

Take “TATTGATTCAATTCCCT (sugars l1 d1 l3 d10 l2, PS)”: under “7.5 µM”, the target mRNA inhibition was found to be 71%.

With “TATTGATTCAATTCCCT (sugars l2 d11 l4, PS)”, the target mRNA inhibition by setting is: (0.2 µM) 58%; (1 µM) 71%.

As for “TATTGATTCAATTCCCT (sugars l2 d12 l3, PS)”, the target mRNA inhibition (7.5 µM) stood at 59%.

Consider “TATTGATTCAATTCCCT (sugars lddllddddddddldll, PS)”, for which the target mRNA inhibition (7.5 µM) stood at 64%.

Consider “TATTGATTCAATTCCCT (sugars ldlldddddddllldll, PS)”, for which the target mRNA inhibition (7.5 µM) came to 19%.

Regarding “TATTGATTCAATTCCCT (sugars lldddddddddldldll, PS)”, the target mRNA inhibition (7.5 µM) was found to be 60%.

As for “TCAAAGCACACCACCAC (sugars l2 d12 l3, PS)”, the target mRNA inhibition (0.2 µM) turned out to be 34% and the target mRNA inhibition (1 µM) worked out at 47%.

With “TCAAGAATTCTCTCCTT (sugars l2 d11 l4, PS)”, the target mRNA inhibition is, setting by setting: (0.2 µM) 47%; (1 µM) 51%.

Consider TCAGAATAATTCTCCT (sugars l3 d10 l3, PS), for which the target mRNA inhibition is 49% (0.2 µM) and 57% (1 µM).

On to TCATCATATTGAACCA (sugars l3 d10 l3, PS), for which the target mRNA inhibition was 65% (0.2 µM) and 68% (1 µM).

Turning to “TCATTGAACAACTCTTC (sugars l4 d11 l2, PS)”, the target mRNA inhibition was found to be 31% (0.2 µM) and 17% (1 µM).

As for TCCATGCTACATAAAC (sugars l4 d10 l2, PS), the target mRNA inhibition was determined as 52% (0.2 µM) and 56% (1 µM).

Consider “TCCATTTATTTCCATTTAT (sugars l2 d11 l2 d2 l2, PS)”, for which the target mRNA inhibition (7.5 µM) was 53%.

Regarding “TCCATTTATTTCCATTTATT (sugars llddlddddddddldlddll, PS)”, under “7.5 µM”, the target mRNA inhibition turned out to be 59%.

Regarding “TCCATTTATTTCCATTTATT (sugars lldldldddddddddddlll, PS)”, the target mRNA inhibition (7.5 µM) was 55%.

For “TCCTCTGCTTATAACTT (sugars l3 d12 l2, PS)”, the target mRNA inhibition is 53% (0.2 µM) and 62% (1 µM).

As for “TCCTTTAGCATTTCTAT (sugars l3 d11 l3, PS)”, the target mRNA inhibition turned out to be 45% (0.2 µM) and 60% (1 µM).

With TCTACCCTAAATTCCC (sugars l2 d11 l3, PS), the target mRNA inhibition is, setting by setting: (0.2 µM) 14%; (1 µM) 29%.

As to “TCTATATCAAGTTCCTT (sugars l2 d11 l4, PS)”, the target mRNA inhibition came to 51% (0.2 µM) and 43% (1 µM).

For TCTCATGACCACCTAA (sugars l2 d10 l4, PS), the target mRNA inhibition by setting is: (0.2 µM) 39%; (1 µM) 54%.

Consider TCTGTATACACCATCC (sugars l4 d10 l2, PS), for which the target mRNA inhibition (0.2 µM) is 61% and the target mRNA inhibition (1 µM) was found to be 68%.

Take “TCTTACTCTGACTTTCCA (sugars l2 d14 l2, PS)”: the target mRNA inhibition is, setting by setting: (0.2 µM) 56%; (1 µM) 65%.

On to “TCTTTCCATTTATTTCCATT (sugars l2 d4 l1 d11 l2, PS)”, for which, where the note is “7.5 µM”, the target mRNA inhibition was found to be 48%.

As to “TGAAAATCTCAACTACCAT (sugars ldllddddddddlddldll, PS)”, where the note is “7.5 µM”, the target mRNA inhibition is 44%.

Turning to “TGAAAATCTCAACTACCAT (sugars lldlldddddddlddldll, PS)”, the target mRNA inhibition (7.5 µM) was 46%.

As for TGCTCACTAACTACAC (sugars l3 d10 l3, PS), the target mRNA inhibition reads like this: (0.2 µM) 22%; (1 µM) 9%.

For TGTCATCTACAAATCA (sugars l4 d10 l2, PS), the target mRNA inhibition is, setting by setting: (0.2 µM) 50%; (1 µM) 46%.

For the sequence “TGTCTATTCTCTTCATT (sugars l4 d11 l2, PS)”, the target mRNA inhibition reads like this: (0.2 µM) 37%; (1 µM) 30%.

Regarding TGTTTATACCCTTTCC (sugars l4 d10 l2, PS), the target mRNA inhibition by setting is: (0.2 µM) 58%; (1 µM) 56%.

Turning to “TGTTTATACCCTTTCCAA (sugars l1 d4 l1 d9 l3, PS)”, the target mRNA inhibition (7.5 µM) was 56%.

Regarding “TGTTTATACCCTTTCCAA (sugars lldlddddddddddldll, PS)”, for the setting “7.5 µM”, the target mRNA inhibition came out at 57%.

In the case of “TGTTTCCATCTACTATTA (sugars lddldddddddddlldll, PS)”, the target mRNA inhibition (7.5 µM) was 63%.

With “TGTTTCCATCTACTATTA (sugars ldlldlddddddddddll, PS)”, the target mRNA inhibition (7.5 µM) is 60%.

For the sequence TTAAATCCAGCATTCA (sugars l3 d10 l3, PS), the target mRNA inhibition reads like this: (0.2 µM) 54%; (1 µM) 66%.

For TTACACATGTATATCC (sugars l3 d10 l3, PS), the target mRNA inhibition reads like this: (0.2 µM) 41%; (1 µM) 36%.

Consider “TTACACTTAATTATACTTCC (sugars l2 d4 l1 d11 l2, PS)”, for which the target mRNA inhibition (7.5 µM) came to 41%.

Consider “TTACACTTAATTATACTTCC (sugars ldddddldddddddldldll, PS)”, for which, where the note is “7.5 µM”, the target mRNA inhibition was 61%.
